Measurements: publication PMC9749936, “Synthesis and structure–activity relationship studies of N-terminal analogues of the lipopeptide antibiotics brevicidine and laterocidine” (RSC Medicinal Chemistry, 2022)
Bridge positions count the residues as written; N and C are the ends. Square brackets hold non-standard residues; d marks the D form. Peptide text beside a SMILES is read from it. * marks the point of attachment. Palmitoyl = CCCCCCCCCCCCCCCC(=O)*; dOrn = NCCC[C@@H](N)C(=O)O; Orn = NCCC[C@H](N)C(=O)O; Butyryl = CCCC(=O)*

Key:
E. coli ATCC 25922 = assay type: cell-based, Escherichia coli; conditions: ATCC 25922, 18 h
Method: (§1) The minimum inhibitory concentrations (MICs) of brevicidine and laterocidine analogues were determined against a panel of clinically relevant ESKAPE pathogens; Escherichia coli (E. coli), Klebsiella pneumoniae (K. pneumoniae), Acinetobacter baumannii (A. baumannii), Pseudomonas aeruginosa (P. aeuroginosa) and Staphylococcus aureus (S. aureus), which cause the majority of nosocomial infections in the United States.[16] […] In this resistance mechanism, the polymyxin target (lipid A) is modified, reducing binding affinity. For this reason, a strain of colistin-resistant E. coli carrying the mcr-1 gene was also included in the panel. […]
(§2) IV. Antimicrobial testing
(§3) All minimum inhibitory concentrations (MICs) were determined according to Clinical and Standards Laboratory Institute (CLSI) guidelines. Blood agar plates were inoculated with glycerol stocks of E. coli ATCC 25922, K. pneumoniae ATCC 13883, A. baumannii ATCC 17961, P. aeruginosa PAO1 and S. aureus USA300. The inoculated agar plates were then incubated for 16 h at 37 °C . Individually grown colonies were subsequently used to inoculate 5 mL aliquots of TSB that were then incubated at 37 °C with shaking at 220 rpm. E. coli 25922 MCR-1 glycerol stock was used to inoculate 5 mL of TSB supplemented with kanamycin that was then incubated for 16 h at 37 °C with shaking at 220 rpm. The next day the culture was diluted 100 fold in TSB supplemented with kanamycin and incubated at 37 °C with shaking at 220 rpm. In parallel, the lipopeptide antibiotics DMSO stocks to be assessed were serially diluted with MHB in polypropylene 96-well plates (50 µL in each well). Colistin sulfate stocks were dissolved in water before being diluted with MHB. Aliquots of the inoculated TSB were incubated until an OD600 of around 0.5 was reached. The bacterial suspensions were then diluted with MHB (2 x 10^5 CFU mL-1) and added to the microplates containing the test compounds (50 µL to each well). The well-plates were sealed with an adhesive membrane and after 18 h of incubation at 37 °C with shaking at 600 rpm, the wells were visually inspected for bacterial […]
(§4) growth. MIC values reported are based on three technical replicates and defined as the lowest concentration of the compound that prevented visible growth of bacteria. […]
(§5) The values obtained from a read-out at 415 nm were corrected for background (negative control) and transformed to a percentage relative to the positive control.
(§6) VI. HPLC and HRMS analysis of peptides
(§7) Peptide Name Chemical Calcd Mass found Calcd Overall […]

E. coli ATCC 25922 MCR-1 = assay type: cell-based, Escherichia coli; conditions: colistin-resistant strain carrying mcr-1; CLSI broth microdilution in MHB, 18 h at 37 °C, visual inspection; three technical replicates
Method: as §1
Colisitin sulfate was purchased from Activate Scientific. Kanamycin monosulfate was purchased from MP Biomedicals. E. coli ATCC 25922, S. aureus USA300 (ATCC BAA1717), K. pneumoniae ATCC 13883 and A. baumannii ATCC 17961 belong to the American Type Culture Collection (ATCC). P. aeruginosa PAO1 was kindly provided by L.H.C. Quarles Van Ufford, Utrecht University, Utrecht, The Netherlands. E. coli ATCC 25922 MCR-1 was transfected in house using the pGDP2-MCR1 plasmid kindly provided by Yong-Xin Li, The University of Hong Kong, Hong Kong, China. Sheep blood agar plates (Ref. PB5039A) were purchased from Thermo Scientific. Tryptic soy broth (Ref. 02-200-500) was purchased from Scharlab. Mueller-Hinton broth (Ref. X927.1) was purchased from Carl Roth. Polypropylene 96-wells plates (Ref. 3879) were purchased from Corning. […]
(10.0 mL). 2-Chlorotrityl (CT) chloride resin (2.00 g, 0.81 mmol g-1) and DIPEA (420 µL, 2.40 mmol) were added. […]
A gradient […]
method for C14 - C16 laterocidine was employed, starting at 100% solvent A for 2 min, ramping up to 70 % solvent B over 45 min, ramping up to 100% solvent B over 1 min, remaining there for 6 min before ramping down to 100% solvent A and remaining there for 5 min. High resolution mass spectrometry (HRMS) spectra of brevicidine peptides were recorded by Analytical Services and Environmental Projects (ASEP) at Queen’s University Belfast on a Waters LCT Premier ToF mass spectrometer using the electrospray ionisation (ESI) technique. HRMS spectra of laterocidine peptides were performed on a Thermo Scientific Dionex UltiMate 3000 HPLC system with a Phenomenex Kinetex C18 (2.6 µm, 2.1 x 150 mm) column at 35 °C and equipped with a diode array detector. The following solvent system, at a flow rate of 0.3 mL/min, was used: solvent A = 0.1% formic acid in water, solvent B = 0.1% formic acid in acetonitrile. A gradient method was employed, starting at 95 % solvent A and 5 % solvent B for 1 min, ramping up to 95 % solvent B over 9 min, ramping up to 98 % solvent B over 1 min, remaining there for 1 min before ramping back down to 95 % solvent A over 2 min and remaining there for 1 min.
The system was connected to a Bruker micrOTOF-Q II mass spectrometer (ESI ionization) calibrated internally with sodium […]
as §2
as §3, with “MHB.” for “MHB. Aliquots of the inoculated TSB were incubated until an OD600 of around 0.5 was reached. The bacterial suspensions were then diluted with MHB (2 x 10^5 CFU mL-1) and added to the microplates containing the test compounds (50 µL to each well). The well-plates were sealed with an adhesive membrane and after 18 h of incubation at 37 °C with shaking at 600 rpm, the wells were visually inspected for bacterial”

K. pneumoniae ATCC 13883 = assay type: cell-based, Klebsiella pneumoniae; conditions: ATCC 13883, 18 h
Method: as §1, §2, §3, §4, §5, §6, §7

A. baumannii ATCC 17961 = assay type: cell-based, Acinetobacter baumannii; conditions: ATCC 17961, 18 h
Method: as §1, §2, §3, §4, §5, §6, §7

P. aeruginosa PAO1 = assay type: cell-based, Pseudomonas aeruginosa; conditions: PAO1, 18 h
Method: as §1, §2, §3, §4, §5, §6, §7

S. aureus USA300 = assay type: cell-based, Staphylococcus aureus; conditions: USA300, 18 h
Method: as §1, §2, §3, §4, §5, §6, §7

Sheep red blood cells = assay type: cell-based; conditions: red cells of sheep, 1 h, 64 μg mL^−1
Method: Having ascertained the antimicrobial activity of all synthetic peptides against a panel of ESKAPE pathogens, we next assessed their mammalian toxicity with hemolytic assays using sheep red blood cells. The % hemolysis for all peptides at 64 μg mL^−1 was determined, with the hemolysis induced by the surfactant 0.1% Triton X-100 taken as 100%. […] Hemolysis was <1% for all analogues with a C8 chain or shorter, including the strongest antibacterial peptide C8-Lat (22). Hemolytic activity increased up to C14 (>50% for C14-Lat) and then decreased at longer chain lengths, perhaps due to decreased solubility of peptides or aggregation. […]
Phosphate-Buffered Saline (PBS) containing 0.002% Tween20 (buffer) five times. Then, the red blood cells were normalized to obtain a positive control read-out between 2.5 and 3.0 at 415 nm to stay within the linear range with the maximum sensitivity. A serial dilution of the compounds (128 – 1 µg/mL, 75 µL) was prepared in a 96-well polypropylene plate. The outer border of the plate was filled with 75 µL buffer. Each plate contained a positive control (0.1% Triton-X final concentration, 75 µL) and a negative control (buffer, 75 µL) in triplicate. The normalized blood cells (75 µL) were added and the plates were incubated at 37 °C for 1 h while shaking at 500 rpm. A flat-bottom polystyrene plate with 100 µL buffer in each well was prepared. After incubation, the plates were centrifuged (800 g for 5 min at room temperature) and 25 µL of the supernatant was transferred to their respective wells in the flat-bottom plate. The values obtained from a read-out at 415 nm were corrected for background (negative control) and transformed to a percentage relative to the positive control. […]

Row | Structure (SMILES) | Antimicrobial activity (MIC) E. coli ATCC 25922 (E. coli ATCC 25922) | Antimicrobial activity (MIC) E. coli ATCC 25922 MCR-1 (E. coli ATCC 25922 MCR-1) | Antimicrobial activity (MIC) K. pneumoniae ATCC 13883 (K. pneumoniae ATCC 13883) | Antimicrobial activity (MIC) A. baumannii ATCC 17961 (A. baumannii ATCC 17961) | Antimicrobial activity (MIC) P. aeruginosa PAO1 (P. aeruginosa PAO1) | Antimicrobial activity (MIC) S. aureus USA300 (S. aureus USA300) | % Hemolytic activity, sheep red blood cells (Sheep red blood cells)
1 | CCCCCCCCCCCCCCCC(=O)N[C@H](CO)C(=O)N[C@H](Cc1ccc(O)cc1)C(=O)N[C@H](Cc1c[nH]c2ccccc12)C(=O)N[C@H](CCCN)C(=O)N[C@@H](CCCN)C(=O)NCC(=O)N[C@H](CCCN)C(=O)N[C@@H](Cc1c[nH]c2ccccc12)C(=O)N[C@@H]1C(=O)N[C@@H]([C@@H](C)CC)C(=O)N[C@@H](CC(N)=O)C(=O)NCC(=O)NCC(=O)O[C@@H]1C [Compound 26] (Palmitoyl-[dS][dY][dW][dOrn][Orn]G[dOrn]WTINGG; ester 9-C) | 32 µg/mL | 32 µg/mL | >32 µg/mL | 4 µg/mL | 32 µg/mL | 32 µg/mL | 46.1%
2 | CCCC(=O)N[C@H](CO)C(=O)N[C@H](Cc1ccc(O)cc1)C(=O)N[C@H](Cc1c[nH]c2ccccc12)C(=O)N[C@H](CCCN)C(=O)N[C@@H](CCCN)C(=O)NCC(=O)N[C@H](CCCN)C(=O)N[C@@H](Cc1c[nH]c2ccccc12)C(=O)N[C@@H]1C(=O)N[C@@H]([C@@H](C)CC)C(=O)N[C@@H](CC(N)=O)C(=O)NCC(=O)NCC(=O)O[C@@H]1C [Compound 20] (Butyryl-[dS][dY][dW][dOrn][Orn]G[dOrn]WTINGG; ester 9-C) | 16 µg/mL | 32 µg/mL | 32 µg/mL | >32 µg/mL | 8 µg/mL | >32 µg/mL | 0.3%
3 | CC[C@H](C)[C@@H]1NC(=O)[C@@H](NC(=O)[C@H](Cc2c[nH]c3ccccc23)NC(=O)[C@@H](CCCN)NC(=O)CNC(=O)[C@H](CCCN)NC(=O)[C@@H](CCCN)NC(=O)[C@@H](Cc2c[nH]c3ccccc23)NC(=O)[C@@H](Cc2ccc(O)cc2)NC(=O)[C@H](N)CO)[C@@H](C)OC(=O)CNC(=O)CNC(=O)[C@H](CC(N)=O)NC1=O [Compound 18] (H-[dS][dY][dW][dOrn][Orn]G[dOrn]WTINGG; ester 9-C) | >32 µg/mL | >32 µg/mL | >32 µg/mL | >32 µg/mL | >32 µg/mL | >32 µg/mL | 0.2%
4 | CC[C@H](C)[C@@H]1NC(=O)[C@@H](NC(=O)[C@H](Cc2c[nH]c3ccccc23)NC(=O)[C@@H](CCCN)NC(=O)CNC(=O)[C@H](CCCN)NC(=O)[C@@H](CCCN)NC(=O)[C@@H](Cc2c[nH]c3ccccc23)NC(=O)[C@@H](Cc2ccc(O)cc2)NC(=O)[C@H](N)CC(N)=O)[C@@H](C)OC(=O)[C@H](CO)NC(=O)CNC1=O [Compound 9] | >32 µg/mL | >32 µg/mL | >32 µg/mL | >32 µg/mL | 16 µg/mL | >32 µg/mL | 0.2%
